The results in this text go back to paper PMC9851200, “Multiparameter phenotypic screening for endogenous TFEB and TFE3 translocation identifies novel chemical series modulating lysosome function” (Autophagy, 2022).

Holding throughout (format): binding
Assay [1] deals with T1, kinases (KINOMEscan panel) (Homo sapiens, UniProt P41743).
T1 sequence (P41743 1-596): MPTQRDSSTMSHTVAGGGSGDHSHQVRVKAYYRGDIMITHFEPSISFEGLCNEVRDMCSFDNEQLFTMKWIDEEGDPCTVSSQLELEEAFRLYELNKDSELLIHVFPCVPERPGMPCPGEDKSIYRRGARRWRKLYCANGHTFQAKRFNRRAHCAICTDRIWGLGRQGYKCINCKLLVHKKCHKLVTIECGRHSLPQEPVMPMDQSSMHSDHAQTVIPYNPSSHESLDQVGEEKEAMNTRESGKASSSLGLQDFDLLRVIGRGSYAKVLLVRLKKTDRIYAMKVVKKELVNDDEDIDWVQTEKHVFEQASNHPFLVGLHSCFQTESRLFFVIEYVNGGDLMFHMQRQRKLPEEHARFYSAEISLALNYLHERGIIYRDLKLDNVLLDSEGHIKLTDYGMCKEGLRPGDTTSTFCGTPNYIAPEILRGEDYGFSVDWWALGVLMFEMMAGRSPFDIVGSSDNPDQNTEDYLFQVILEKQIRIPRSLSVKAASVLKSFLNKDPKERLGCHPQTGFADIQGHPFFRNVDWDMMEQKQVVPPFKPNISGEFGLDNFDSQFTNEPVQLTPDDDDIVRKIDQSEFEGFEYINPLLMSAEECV
The settings on record: PRKCI; NEW KINOMEscan.

Assay [2] addresses T2, kinases (KINOMEscan panel) (Homo sapiens, UniProt Q92772).
T2 sequence (Q92772 1-493): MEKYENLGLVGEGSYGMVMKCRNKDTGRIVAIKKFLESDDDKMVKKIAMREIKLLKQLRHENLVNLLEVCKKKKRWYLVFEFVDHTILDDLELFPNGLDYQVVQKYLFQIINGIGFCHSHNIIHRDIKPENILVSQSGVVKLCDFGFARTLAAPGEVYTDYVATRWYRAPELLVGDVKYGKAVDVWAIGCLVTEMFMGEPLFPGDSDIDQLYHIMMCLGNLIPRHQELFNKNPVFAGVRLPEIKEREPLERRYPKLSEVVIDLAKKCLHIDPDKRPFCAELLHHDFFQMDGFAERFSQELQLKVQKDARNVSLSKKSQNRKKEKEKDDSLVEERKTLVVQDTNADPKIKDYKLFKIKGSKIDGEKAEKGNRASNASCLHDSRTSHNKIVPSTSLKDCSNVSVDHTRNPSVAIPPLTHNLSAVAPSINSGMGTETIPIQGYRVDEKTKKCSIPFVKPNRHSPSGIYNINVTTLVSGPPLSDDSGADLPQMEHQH
The settings on record: CDKL2; NEW KINOMEscan.

The target of assay [3] is kinases (KINOMEscan panel) (Homo sapiens, UniProt P00533, L858R/T790M). As to conditions: NEW KINOMEscan.
Assay [4] concerns the target T3, kinases (KINOMEscan panel) (Homo sapiens, UniProt Q13976).
T3 sequence (Q13976 1-671): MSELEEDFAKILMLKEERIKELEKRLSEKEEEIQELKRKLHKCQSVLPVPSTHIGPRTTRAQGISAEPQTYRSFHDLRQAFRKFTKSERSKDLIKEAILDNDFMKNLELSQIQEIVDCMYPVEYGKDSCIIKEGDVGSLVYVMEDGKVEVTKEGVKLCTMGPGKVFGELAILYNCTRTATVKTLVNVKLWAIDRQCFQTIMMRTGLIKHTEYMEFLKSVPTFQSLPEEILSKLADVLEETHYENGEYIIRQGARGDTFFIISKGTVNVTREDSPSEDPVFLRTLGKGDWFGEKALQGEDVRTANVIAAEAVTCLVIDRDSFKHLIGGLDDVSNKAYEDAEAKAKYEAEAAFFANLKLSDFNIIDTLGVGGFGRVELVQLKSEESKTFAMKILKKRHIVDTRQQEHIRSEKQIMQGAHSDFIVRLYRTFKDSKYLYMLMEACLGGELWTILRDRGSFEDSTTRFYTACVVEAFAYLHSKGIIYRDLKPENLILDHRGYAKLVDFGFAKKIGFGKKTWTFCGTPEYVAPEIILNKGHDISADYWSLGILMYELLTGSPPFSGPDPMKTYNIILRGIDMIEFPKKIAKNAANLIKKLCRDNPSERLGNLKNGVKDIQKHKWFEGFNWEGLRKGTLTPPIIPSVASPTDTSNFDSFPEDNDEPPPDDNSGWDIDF
The settings on record: kinase PRKG1; NEW KINOMEscan.

Assay [5] addresses kinases (KINOMEscan panel) (Homo sapiens, UniProt P36888, R834Q). As to conditions: kinase FLT3(R834Q); NEW KINOMEscan.
Assay [6] concerns the target kinases (KINOMEscan panel) (Homo sapiens, UniProt Q86Y07). As to conditions: NEW KINOMEscan.
Assay [7] concerns the target kinases (KINOMEscan panel) (Homo sapiens, UniProt Q13177). The settings on record: PAK2; NEW KINOMEscan.

kinases (KINOMEscan panel) (Homo sapiens, UniProt Q86Y07), sequence (Q86Y07 whole entry): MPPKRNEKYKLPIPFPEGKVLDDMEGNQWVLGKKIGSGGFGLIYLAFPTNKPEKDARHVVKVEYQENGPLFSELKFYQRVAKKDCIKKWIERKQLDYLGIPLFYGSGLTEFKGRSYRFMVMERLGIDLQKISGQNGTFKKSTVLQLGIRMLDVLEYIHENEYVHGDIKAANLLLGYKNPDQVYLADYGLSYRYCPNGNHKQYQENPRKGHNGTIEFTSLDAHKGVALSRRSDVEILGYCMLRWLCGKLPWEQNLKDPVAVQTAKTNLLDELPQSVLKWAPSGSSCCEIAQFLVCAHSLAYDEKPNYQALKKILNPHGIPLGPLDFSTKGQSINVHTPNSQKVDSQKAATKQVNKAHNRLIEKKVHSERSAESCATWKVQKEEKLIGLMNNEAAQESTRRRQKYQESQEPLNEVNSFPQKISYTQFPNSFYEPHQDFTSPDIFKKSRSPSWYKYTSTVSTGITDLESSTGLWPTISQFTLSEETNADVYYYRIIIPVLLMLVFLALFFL
kinases (KINOMEscan panel) (Homo sapiens, UniProt P00533, L858R/T790M), sequence (P00533 25-1210 T790M/L858R): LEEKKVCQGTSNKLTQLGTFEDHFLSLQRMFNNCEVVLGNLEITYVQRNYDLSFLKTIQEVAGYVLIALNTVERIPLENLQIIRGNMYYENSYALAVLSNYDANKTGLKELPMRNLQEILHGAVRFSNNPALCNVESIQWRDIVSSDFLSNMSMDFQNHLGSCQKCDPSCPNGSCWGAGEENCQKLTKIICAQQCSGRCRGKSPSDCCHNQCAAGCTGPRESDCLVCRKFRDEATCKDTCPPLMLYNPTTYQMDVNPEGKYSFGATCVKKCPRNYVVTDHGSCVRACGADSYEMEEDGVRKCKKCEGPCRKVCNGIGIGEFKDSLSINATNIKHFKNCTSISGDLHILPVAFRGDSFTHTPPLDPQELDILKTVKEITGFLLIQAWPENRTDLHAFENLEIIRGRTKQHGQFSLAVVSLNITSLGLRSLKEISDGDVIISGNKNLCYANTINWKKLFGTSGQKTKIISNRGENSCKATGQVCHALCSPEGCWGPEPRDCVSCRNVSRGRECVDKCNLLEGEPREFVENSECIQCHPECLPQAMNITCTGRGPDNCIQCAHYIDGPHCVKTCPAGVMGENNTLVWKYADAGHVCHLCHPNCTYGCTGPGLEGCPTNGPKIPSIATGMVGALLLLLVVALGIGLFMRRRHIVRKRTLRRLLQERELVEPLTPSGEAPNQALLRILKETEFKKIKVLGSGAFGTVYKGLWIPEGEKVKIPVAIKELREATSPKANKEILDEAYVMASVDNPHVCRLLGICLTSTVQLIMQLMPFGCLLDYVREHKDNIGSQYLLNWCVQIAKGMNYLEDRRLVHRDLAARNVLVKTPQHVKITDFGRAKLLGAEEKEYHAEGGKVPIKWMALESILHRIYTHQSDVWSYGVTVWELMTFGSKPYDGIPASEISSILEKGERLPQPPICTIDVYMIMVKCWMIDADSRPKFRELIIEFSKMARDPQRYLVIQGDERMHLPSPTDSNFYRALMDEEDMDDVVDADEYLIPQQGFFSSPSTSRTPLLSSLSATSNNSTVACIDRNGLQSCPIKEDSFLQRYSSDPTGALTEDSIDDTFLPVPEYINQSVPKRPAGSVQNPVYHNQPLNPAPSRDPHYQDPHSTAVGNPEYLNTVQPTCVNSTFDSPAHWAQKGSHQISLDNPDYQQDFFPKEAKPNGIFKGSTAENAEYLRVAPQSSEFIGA
kinases (KINOMEscan panel) (Homo sapiens, UniProt Q13177), sequence (Q13177 whole entry): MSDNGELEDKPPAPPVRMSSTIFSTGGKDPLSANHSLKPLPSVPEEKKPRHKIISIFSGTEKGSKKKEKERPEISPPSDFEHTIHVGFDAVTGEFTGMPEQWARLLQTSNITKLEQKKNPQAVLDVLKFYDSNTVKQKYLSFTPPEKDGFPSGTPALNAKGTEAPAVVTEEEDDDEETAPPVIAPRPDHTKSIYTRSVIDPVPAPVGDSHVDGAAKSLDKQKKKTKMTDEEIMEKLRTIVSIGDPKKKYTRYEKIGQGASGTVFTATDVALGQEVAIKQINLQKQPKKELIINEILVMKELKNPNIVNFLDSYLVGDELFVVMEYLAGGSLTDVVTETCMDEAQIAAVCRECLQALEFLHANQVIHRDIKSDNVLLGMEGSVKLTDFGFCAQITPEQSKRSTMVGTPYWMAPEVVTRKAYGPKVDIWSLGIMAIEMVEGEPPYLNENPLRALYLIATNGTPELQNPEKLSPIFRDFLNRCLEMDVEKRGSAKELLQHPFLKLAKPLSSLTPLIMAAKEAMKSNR

Consider `Cc1cccc(-c2nc(N(C)c3ccc4ncsc4c3)c3ccccc3n2)n1` [NK-161], for which, in assay [1], the “KINOMEscan PRKCI” value is on record as 0. Besides, the “KINOMEscan CDKL2” value in assay [2] is on record as 0. The “KINOMEscan EGFR(L858R,T790M)” value in assay [3] turned out to be 10. In addition, in assay [4], the “KINOMEscan PRKG1” value was found to be 10. For the same compound, in assay [5], the “KINOMEscan FLT3(R834Q)” value is listed as 2. Further, in assay [6], the “KINOMEscan VRK2” value stood at 25. Also, the “KINOMEscan PAK2” value in assay [7] was 0.

Regarding `Cc1cccc(-c2nc(Nc3ccc4nn(C)cc4c3)c3ccccc3n2)n1` [NK167], the “KINOMEscan PRKCI” value in assay [1] is given as 0. The “KINOMEscan CDKL2” value in assay [2] is given as 0. Also, the “KINOMEscan EGFR(L858R,T790M)” value in assay [3] was found to be 0. In addition, the “KINOMEscan PRKG1” value in assay [4] is on record as 0. The “KINOMEscan FLT3(R834Q)” value in assay [5] was found to be 0. In addition, in assay [6], the “KINOMEscan VRK2” value is recorded as 11. Also, the “KINOMEscan PAK2” value in assay [7] turned out to be 0.
